In the OligoGym collection:
Bases are written 5' to 3'; sugars and linkages follow in the same order, as letters with counts (s phosphorothioate, o phosphodiester; PS: all linkages phosphorothioate). C may stand for cytosine or 5-methylcytosine; the collection does not tell. l = locked nucleic acid (LNA); d = 2'-deoxy (DNA)

target: HIF1A; test: HeLa, 100 nM transfected, 24 h, mean of 3; details: ASO

Row | Sequence | caspase activation (% of PBS control)
1 | GTTACTGCCTTCTTAC (sugars l1 d1 l1 d11 l2, PS) | 97.8
2 | TGGCAAGCATCCTGTA (sugars l1 d14 l1, PS) | 201
3 | TGGCAAGCATCCTGTA (sugars ldllddddddddlldl, PS) | 412
4 | CAAGCATCCTGTA (sugars ldldddddddldl, PS) | 136
5 | TGGCAAGCATCCTGTA (sugars l4 d9 l3, PS) | 412
6 | ACTGCCTTCTTAC (sugars l1 d9 l3, PS) | 140
7 | GTTACTGCCTTCTTAC (sugars lldlldddddddldll, PS) | 293
8 | GTTACTGCCTTCTTAC (sugars lddllddddddllldl, PS) | 414
9 | TGGCAAGCATCCTGTA (sugars ldlldddddddlddll, PS) | 306
10 | TGGCAAGCATCCTGTA (sugars ldddlddddddldlll, PS) | 230
11 | GTTACTGCCTTCTTAC (sugars l1 d13 l2, PS) | 87.3
12 | GTTACTGCCTTCTTAC (sugars l4 d9 l1 d1 l1, PS) | 191
13 | TGGCAAGCATCCTGTA (sugars lldldddddddddldl, PS) | 522
14 | TGGCAAGCATCCTGTA (sugars ldldlddddddlddll, PS) | 178
15 | TGGCAAGCATCCTGTA (sugars l5 d7 l1 d1 l2, PS) | 390
16 | TGGCAAGCATCCTGTA (sugars l4 d8 l2 d1 l1, PS) | 425
17 | TGGCAAGCATCCTGTA (sugars ldllldddddddlddl, PS) | 419
18 | TGGCAAGCATCCTGTA (sugars l5 d6 l2 d2 l1, PS) | 344
19 | TGGCAAGCATCCTGTA (sugars lddllddddddldddl, PS) | 361
20 | TGGCAAGCATCCTGTA (sugars l3 d12 l1, PS) | 237
21 | TGGCAAGCATCCTGTA (sugars ldlddddddddlddll, PS) | 218
22 | CAAGCATCCTGTA (sugars lldlddddddldl, PS) | 142
23 | TTACTGCCTTCTT (sugars l1 d1 l1 d7 l3, PS) | 183
24 | TGGCAAGCATCCTGTA (sugars ldlldddddddldddl, PS) | 229
25 | GTTACTGCCTTCTTAC (sugars ldlddddddddldlll, PS) | 155

Row | Sequence | caspase activation (% of PBS control)
26 | GTTACTGCCTTCTTAC (sugars l2 d13 l1, PS) | 102
27 | GCAAGCATCCTGT (sugars l2 d1 l1 d6 l3, PS) | 267
28 | TGGCAAGCATCCTGTA (sugars lddlldddddddldll, PS) | 412
29 | GTTACTGCCTTCTTAC (sugars ldlddddddddllddl, PS) | 158
30 | TGGCAAGCATCCTGTA (sugars l2 d9 l2 d1 l2, PS) | 401
31 | GTTACTGCCTTCTTAC (sugars ldldlddddddlllll, PS) | 342
32 | TTACTGCCTTCTT (sugars l1 d1 l2 d6 l3, PS) | 237
33 | TGGCAAGCATCCTGTA (sugars lddllddddddllldl, PS) | 416
34 | GTTACTGCCTTCTTAC (sugars l1 d1 l1 d12 l1, PS) | 103
35 | GTTACTGCCTTCTTAC (sugars l2 d10 l4, PS) | 151
36 | GTTACTGCCTTCTTAC (sugars llldlddddddldlll, PS) | 273
37 | GTTACTGCCTTCTTAC (sugars llddlddddddldldl, PS) | 235
38 | TACTGCCTTCTTA (sugars l4 d7 l2, PS) | 594
39 | TGGCAAGCATCCTGTA (sugars llddldddddddlldl, PS) | 341
40 | GTTACTGCCTTCTTAC (sugars ldldlddddddldddl, PS) | 234
41 | TGGCAAGCATCCTGTA (sugars l4 d7 l1 d2 l2, PS) | 323
42 | GTTACTGCCTTCTTAC (sugars lldllddddddllldl, PS) | 506
43 | GTTACTGCCTTCTTAC (sugars l2 d1 l2 d7 l4, PS) | 376
44 | GTTACTGCCTTCTTAC (sugars lddllddddddlldll, PS) | 196
45 | GTTACTGCCTTCTTAC (sugars ldlddddddddlddll, PS) | 130
46 | TGGCAAGCATCCTGTA (sugars lldlddddddddlddl, PS) | 604
47 | GTTACTGCCTTCTTAC (sugars ldldddddddddlddl, PS) | 118
48 | TGGCAAGCATCCTGTA (sugars l2 d1 l2 d9 l2, PS) | 419
49 | TGGCAAGCATCCTGTA (sugars ldldddddddddldll, PS) | 252
50 | GGCAAGCATCCTG (sugars lldlddddddldl, PS) | 334

Row | Sequence | caspase activation (% of PBS control)
51 | TGGCAAGCATCCTGTA (sugars l2 d1 l1 d11 l1, PS) | 378
52 | TGGCAAGCATCCTGTA (sugars l3 d11 l2, PS) | 314
53 | TGGCAAGCATCCTGTA (sugars lddllddddddlldll, PS) | 388
54 | GGCAAGCATCCTG (sugars l1 d10 l2, PS) | 394
55 | TGGCAAGCATCCTGTA (sugars l1 d10 l5, PS) | 480
56 | TGGCAAGCATCCT (sugars l2 d8 l1 d1 l1, PS) | 407
57 | GTTACTGCCTTCTTAC (sugars ldlldddddddllldl, PS) | 365
58 | GTTACTGCCTTCTTAC (sugars lddlldddddddlldl, PS) | 374
59 | TGGCAAGCATCCTGTA (sugars llldldddddddlldl, PS) | 367
60 | CAAGCATCCTGTA (sugars l2 d1 l1 d7 l2, PS) | 133
61 | GTTACTGCCTTCTTAC (sugars l2 d1 l1 d8 l4, PS) | 194
62 | TGGCAAGCATCCTGTA (sugars l1 d10 l2 d2 l1, PS) | 346
63 | TGGCAAGCATCCTGTA (sugars ldddldddddddlldl, PS) | 167
64 | GTTACTGCCTTCTTAC (sugars l1 d1 l2 d8 l4, PS) | 200
65 | TGGCAAGCATCCTGTA (sugars ldllddddddddldll, PS) | 466
66 | GTTACTGCCTTCTTAC (sugars llddldddddddlddl, PS) | 197
67 | GGCAAGCATCCTG (sugars l1 d1 l1 d7 l3, PS) | 721
68 | GTTACTGCCTTCT (sugars lldlddddddldl, PS) | 105
69 | GTTACTGCCTTCTTAC (sugars l3 d8 l3 d1 l1, PS) | 360
70 | GGCAAGCATCCTG (sugars l1 d11 l1, PS) | 316
71 | TACTGCCTTCTTA (sugars l1 d1 l2 d6 l3, PS) | 585
72 | GTTACTGCCTTCTTAC (sugars l1 d10 l1 d1 l3, PS) | 125
73 | TGGCAAGCATCCTGTA (sugars l2 d1 l1 d8 l4, PS) | 393
74 | GTTACTGCCTTCTTAC (sugars llldldddddddldll, PS) | 274
75 | GTTACTGCCTTCTTAC (sugars llldldddddddlddl, PS) | 277

Row | Sequence | caspase activation (% of PBS control)
76 | GCAAGCATCCTGT (sugars l3 d8 l2, PS) | 450
77 | GCAAGCATCCTGT (sugars l3 d9 l1, PS) | 346
78 | GTTACTGCCTTCTTAC (sugars lldldddddddlldll, PS) | 163
79 | ACTGCCTTCTTAC (sugars ldldddddddldl, PS) | 208
80 | GTTACTGCCTTCTTAC (sugars lllddddddddldldl, PS) | 233
81 | GTTACTGCCTTCTTAC (sugars ldlddddddddldddl, PS) | 115
82 | TGGCAAGCATCCTGTA (sugars ldllddddddddlddl, PS) | 438
83 | TGGCAAGCATCCT (sugars ldldddddddldl, PS) | 170
84 | GTTACTGCCTTCTTAC (sugars ldlldddddddllddl, PS) | 255
85 | GTTACTGCCTTCTTAC (sugars lddllddddddlddll, PS) | 218
86 | TTACTGCCTTCTT (sugars l2 d1 l1 d8 l1, PS) | 147
87 | TACTGCCTTCTTA (sugars l1 d2 l1 d8 l1, PS) | 118
88 | GTTACTGCCTTCTTAC (sugars lddlldddddddldll, PS) | 240
89 | TACTGCCTTCTTA (sugars l1 d1 l1 d9 l1, PS) | 193
90 | TGGCAAGCATCCTGTA (sugars lldldddddddllldl, PS) | 419
91 | GTTACTGCCTTCTTAC (sugars l3 d9 l1 d2 l1, PS) | 185
92 | GTTACTGCCTTCTTAC (sugars l3 d8 l5, PS) | 379
93 | GCAAGCATCCTGT (sugars l1 d10 l2, PS) | 112
94 | GTTACTGCCTTCTTAC (sugars l3 d10 l1 d1 l1, PS) | 161
95 | GTTACTGCCTTCTTAC (sugars llldlddddddllldl, PS) | 485
96 | GGCAAGCATCCTG (sugars l1 d9 l3, PS) | 468
97 | TGGCAAGCATCCT (sugars l1 d1 l1 d7 l3, PS) | 127
98 | TACTGCCTTCTTA (sugars ldldddddddldl, PS) | 237
99 | TGGCAAGCATCCTGTA (sugars lddlddddddddlddl, PS) | 312
100 | GTTACTGCCTTCTTAC (sugars lldddddddddldldl, PS) | 144
